{
  "source": "patent US20190085289A1",
  "about": "“COMPOSITIONS AND METHODS FOR PATHOGEN INACTIVATION OF PLATELETS” (Cerus Corporation, priority 2017, published 2019)",
  "key": {"[1]": {"assay": "Stability of S-59 in InterSol PAS under ambient light (HPLC)", "assay_type": "physicochemical", "conditions": "S-59 230 μM in InterSol PAS, room temp", "description": "Initial studies evaluated stability of the pathogen inactivation compound amotosalen (S-59) that was formulated in a platelet additive solution (PAS). A 230 μM solution of psoralen compound S-59 (Irsch et al., Transfus Med Hemother, 38: 19-31 (2011)) was prepared in the commercially available PAS solution InterSol® (Fenwal Inc.) and maintained at room temperature under ambient light conditions. HPLC analysis was performed on samples at times listed in Table 1 for both S-59 and photoproducts. […] S-59 data are shown as both concentration (μM), as well as peak area (S-59 UV) for relative comparison to any photoproducts detected with HPLC (Table 1). Peak D and Peak E photoproducts also were observed by 22 hr and 72 hr, respectively, as well as process impurity decomposition product 4′-HMT, with peak area values indicated (Table 1)."}, "[2]": {"assay": "Stability of S-59 in InterSol PAS protected from ambient light (HPLC)", "assay_type": "physicochemical", "conditions": "S-59 230 μM in InterSol PAS, room temp, protected from light", "description": "Additional studies evaluated stability of the S-59 (amotosalen) pathogen inactivation compound formulated in a platelet additive solution (PAS), but protected from ambient light exposure. A 230 μM solution of S-59 was prepared in the commercially available PAS solution InterSol® (Fenwal Inc.) and maintained at room temperature protected from ambient light conditions. HPLC analysis was performed on samples at times listed in Table 2 for both S-59 and photoproducts."}},
  "data": [
    {"smiles": "Cc1oc2c(C)c3oc(=O)cc(C)c3cc2c1CO", "note": "[4′-HMT]", "values": [
      {"measurement": "4′-HMT UV peak area (HPLC)", "setting": "[1]; 5 hr", "value": 5.624},
      {"measurement": "4′-HMT UV peak area (HPLC)", "setting": "[1]; 6 hr", "value": 5.090},
      {"measurement": "4′-HMT UV peak area (HPLC)", "setting": "[1]; 22 hr", "value": 5.125},
      {"measurement": "4′-HMT UV peak area (HPLC)", "setting": "[1]; 30 hr", "value": 5.334},
      {"measurement": "4′-HMT UV peak area (HPLC)", "setting": "[1]; 47 hr", "value": 4.954},
      {"measurement": "4′-HMT UV peak area (HPLC)", "setting": "[1]; 56 hr", "value": 4.742},
      {"measurement": "4′-HMT UV peak area (HPLC)", "setting": "[1]; 72 hr", "value": 4.839},
      {"measurement": "4′-HMT UV peak area (HPLC)", "setting": "[1]; 78 hr", "value": 4.793},
      {"measurement": "4′-HMT UV peak area (HPLC)", "setting": "[1]; T 0", "value": 4.924},
      {"measurement": "4′-HMT UV peak area (HPLC)", "setting": "[2]; 5.5 hr", "value": 3.7162},
      {"measurement": "4′-HMT UV peak area (HPLC)", "setting": "[2]; 21.5 hr", "value": 4.3525},
      {"measurement": "4′-HMT UV peak area (HPLC)", "setting": "[2]; 28.5 hr", "value": 3.8628},
      {"measurement": "4′-HMT UV peak area (HPLC)", "setting": "[2]; 44 hr", "value": 4.0199},
      {"measurement": "4′-HMT UV peak area (HPLC)", "setting": "[2]; 45.5 hr", "value": 4.4036},
      {"measurement": "4′-HMT UV peak area (HPLC)", "setting": "[2]; 53 hr", "value": 4.0582},
      {"measurement": "4′-HMT UV peak area (HPLC)", "setting": "[2]; 77 hr", "value": 4.4268},
      {"measurement": "4′-HMT UV peak area (HPLC)", "setting": "[2]; T 0", "value": 3.8849}
    ]}
  ]
}
